# In patent US8829000B2, “Substituted imidazo[1,5-A]quinoxalines as phosphodiesterase 9 inhibitors” (ASKA Pharmaceutical Co., Ltd., priority 2006, dated 2014):
# Counter-ions that a name gives are not always drawn.
# Tested on: partial urethra obstruction model in guinea pigs
# Assay: Dysuria pathological model: cystometry in partial urethra obstruction model
# Type: in vivo, Hartley female guinea pigs
# Conditions: guinea pig; for Frequency of occurrence of uninhibited contraction, before administration / Residual urine volume, before administration: baseline
# Method: Three-four weeks old Hartley female guinea pigs (Japan SLC, Inc.) were given celiotomy under anesthesia with pentobarbital (30 mg/kg i.p.) and in their urethra to the peripheral side by 1-2 mm from the bladder neck, each a polyethylene tube of […] and 2.0 mm in inner diameter was placed.
# The model was catheterized under anesthesia with urethane (1 g/kg i.p.) at the apex of urinary bladder and right jugular vein for cystometrography and intravenous administration, respectively. The other end of the bladder catheter was connected to a pressure transducer and infusion pump via a three way stop-cock, and physiological saline was continuously infused into the bladder through the infusion pump at a rate of 0.4 mL/min. to induce micturition reflex. Immediately after the micturition reflex was induced, infusion of physiological saline into the bladder was stopped. The intravesical pressure at the time the micturition reflex was induced was measured with the pressure transducer, and the obtained cystometrogram was recorded with pen recorder. The urine voided was collected with disposable type weighing dish and its weight was measured. Further the physiological saline remained in the bladder was sucked with syringe via the bladder catheter and the residual urine volume was measured. The operations of suspending the infusion of physiological saline upon induction of micturition reflex, and about 1 minute thereafter resuming the infusion of physiological saline to induce micturition reflex were repeated plural times (generally 4 times) to stabilize the micturition reflex.
# After stabilizing the micturition reflex, a compound solution (prepared by dissolving the compound or methanesulfonic acid salt thereof in DMSO and diluting it with physiological saline or distilled water) or physiological saline was administered into the vein at a volume of 10 mL/kg over 4 minutes, and simultaneously the above-described micturition reflex operations were repeated until 30 minutes passed after initiation of the administration, while measuring the intravesical pressure and the volumes of micturition and residual urine. Also the frequency of uninhibited contraction occurrence during the above-described operations was recorded.
structure (smiles),measurement,setting,value
CC(C)c1ncc2c(=O)[nH]c3cc(C(=O)N(C)C)ccc3n12 [Example 9 (methanesulfonic acid salt)],"Frequency of occurrence of uninhibited contraction, after administration",0.3 mg/kg i.v.,1.45 times/min
same,"Frequency of occurrence of uninhibited contraction, quantitative change",0.3 mg/kg i.v.,−0.64 times/min
same,"Residual urine volume, after administration",0.3 mg/kg i.v.,0.11 mL
same,"Residual urine volume, quantitative change",0.3 mg/kg i.v.,-0.32 mL
same,"Frequency of occurrence of uninhibited contraction, after administration",3 mg/kg i.v.,0.99 times/min
same,"Frequency of occurrence of uninhibited contraction, quantitative change",3 mg/kg i.v.,−1.10 times/min
same,"Residual urine volume, after administration",3 mg/kg i.v.,0.63 mL
same,"Residual urine volume, quantitative change",3 mg/kg i.v.,+0.20 mL
same,"Frequency of occurrence of uninhibited contraction, after administration",10 mg/kg i.v.,0.00 times/min
same,"Frequency of occurrence of uninhibited contraction, quantitative change",10 mg/kg i.v.,−0.57 times/min
same,"Residual urine volume, after administration",10 mg/kg i.v.,0.03 mL
same,"Residual urine volume, quantitative change",10 mg/kg i.v.,-0.34 mL
same,"Frequency of occurrence of uninhibited contraction, before administration",dose group 0.3 mg/kg i.v.,2.09 times/min
same,"Residual urine volume, before administration",dose group 0.3 mg/kg i.v.,0.43 mL
same,"Frequency of occurrence of uninhibited contraction, before administration",dose group 3 mg/kg i.v.,2.09 times/min
same,"Residual urine volume, before administration",dose group 3 mg/kg i.v.,0.43 mL
same,"Frequency of occurrence of uninhibited contraction, before administration",dose group 10 mg/kg i.v.,0.57 times/min
same,"Residual urine volume, before administration",dose group 10 mg/kg i.v.,0.37 mL
CC(C)c1ncc2c(=O)[nH]c3cc(Cl)ccc3n12 [Example 6 (methanesulfonic acid salt)],"Frequency of occurrence of uninhibited contraction, after administration",0.1 mg/kg i.v.,1.82 times/min
same,"Frequency of occurrence of uninhibited contraction, quantitative change",0.1 mg/kg i.v.,+0.62 times/min
same,"Residual urine volume, after administration",0.1 mg/kg i.v.,0.13 mL
same,"Residual urine volume, quantitative change",0.1 mg/kg i.v.,-0.12 mL
same,"Frequency of occurrence of uninhibited contraction, after administration",1 mg/kg i.v.,1.97 times/min
same,"Frequency of occurrence of uninhibited contraction, quantitative change",1 mg/kg i.v.,+0.77 times/min
same,"Residual urine volume, after administration",1 mg/kg i.v.,0.47 mL
same,"Residual urine volume, quantitative change",1 mg/kg i.v.,0.22 mL
same,"Frequency of occurrence of uninhibited contraction, after administration",3 mg/kg i.v.,0.68 times/min
same,"Frequency of occurrence of uninhibited contraction, quantitative change",3 mg/kg i.v.,−0.52 times/min
same,"Residual urine volume, after administration",3 mg/kg i.v.,0.21 mL
same,"Residual urine volume, quantitative change",3 mg/kg i.v.,-0.04 mL
same,"Frequency of occurrence of uninhibited contraction, before administration",dose group 0.1 mg/kg i.v.,1.20 times/min
same,"Residual urine volume, before administration",dose group 0.1 mg/kg i.v.,0.25 mL
same,"Frequency of occurrence of uninhibited contraction, before administration",dose group 1 mg/kg i.v.,1.20 times/min
same,"Residual urine volume, before administration",dose group 1 mg/kg i.v.,0.25 mL
same,"Frequency of occurrence of uninhibited contraction, before administration",dose group 3 mg/kg i.v.,1.20 times/min
same,"Residual urine volume, before administration",dose group 3 mg/kg i.v.,0.25 mL
